Results published in patent US9510598B2, “Nitrogen-containing heterocyclic compounds for plant disease control” (BAYER CROPSCIENCE AG, priority 2012, dated 2016).

Type: physicochemical
Settings: HPLC on reversed phase columns, method [a]: pH 2.7, 0.1% formic acid in water / acetonitrile, linear gradient 10% to 95% acetonitrile

SMILES	log P
C#Cc1cnc2ccc(C3=NOC(C)(C(=O)NCC[Si](C)(C)C)C3)cc2c1 (centres unmarked) [compound 231]	3.7^[a]
C#Cc1cnc2ccc(C3=NOC(C)(C(=O)NCC4CCCN4CC)C3)cc2c1 (centres unmarked) [compound 232]	1.22^[a]
C#CCOc1coc(CNC(=O)C2(C)CC(c3ccc4ncc(C#C)cc4c3)=NO2)cc1=O (centres unmarked) [compound 233]	1.98^[a]

Same assay, conditions: method [a]: HPLC/LC-MS on reversed phase at pH 2.7, 0.1% formic acid in water / acetonitrile, linear gradient 10% to 95% acetonitrile

SMILES	log P
CC1(C(=O)NCc2cccnc2)CC(c2ccc3ncc(Br)cc3c2)=NO1 (centres unmarked) [compound 92]	1.41^[a]
CC1(C(=O)NCc2ccccc2Cl)CC(c2ccc3ncc(Br)cc3c2)=NO1 (centres unmarked) [compound 93]	3.61^[a]
CC1(C(=O)NCc2ccc(Cl)cc2)CC(c2ccc3ncc(Br)cc3c2)=NO1 (centres unmarked) [compound 94]	3.61^[a]
CC1(C(=O)NCc2cnn(-c3ccccc3)n2)CC(c2ccc3ncc(Br)cc3c2)=NO1 (centres unmarked) [compound 96]	3.5^[a]
CC1(C(=O)NCc2cc(Cl)cc(Cl)c2)CC(c2ccc3ncc(Br)cc3c2)=NO1 (centres unmarked) [compound 97]	4.16^[a]
CC1(C(=O)NCc2ccc(OC(F)(F)F)cc2)CC(c2ccc3ncc(Br)cc3c2)=NO1 (centres unmarked) [compound 101]	3.92^[a]
CC1(C(=O)NCc2ccncc2)CC(c2ccc3ncc(Br)cc3c2)=NO1 (centres unmarked) [compound 102]	1.34^[a]
CCCn1cc(CNC(=O)C2(C(F)(F)F)CC(c3ccc4ncc(Br)cc4c3)=NO2)c(C)n1 (centres unmarked) [compound 107]	3.33^[a]
CC1(C(=O)NCCc2ccc(Cl)cc2Cl)CC(c2ccc3ncc(Br)cc3c2)=NO1 (centres unmarked) [compound 110]	4.16^[a]
CC1(C(=O)NCCc2ccc(Cl)cc2)CC(c2ccc3ncc(Br)cc3c2)=NO1 (centres unmarked) [compound 111]	3.68^[a]
CC1(C(=O)NCC2CCOc3ccccc32)CC(c2ccc3ncc(Br)cc3c2)=NO1 (centres unmarked) [compound 112]	3.48^[a]
CC1(C(=O)NCC2CCCOC2c2ccccc2)CC(c2ccc3ncc(Br)cc3c2)=NO1 (centres unmarked) [compound 113]	3.5^[a]
Cc1cc2cc(CNC(=O)C3(C)CC(c4ccc5ncc(Br)cc5c4)=NO3)ccc2[nH]1 (centres unmarked) [compound 114]	3.17^[a]
CC1(C(=O)NCc2ccc3[nH]ccc3c2)CC(c2ccc3ncc(Br)cc3c2)=NO1 (centres unmarked) [compound 116]	2.92^[a]
CC1(C(=O)NCC2OCCc3ccccc32)CC(c2ccc3ncc(Br)cc3c2)=NO1 (centres unmarked) [compound 117]	3.33^[a]
CC1(C(=O)NCc2ccc3c(c2)OCCO3)CC(c2ccc3ncc(Br)cc3c2)=NO1 (centres unmarked) [compound 118]	3.04^[a]
CC1(C(=O)NCC2CCC(C(F)(F)F)CC2)CC(c2ccc3ncc(Br)cc3c2)=NO1 (centres unmarked) [compound 119]	4.01^[a]
CC1(C(=O)NCc2ccc3c(c2)OCC3)CC(c2ccc3ncc(Br)cc3c2)=NO1 (centres unmarked) [compound 123]	3.17^[a]
CN1C(=O)CCC1CNC(=O)C1(C)CC(c2ccc3ncc(Br)cc3c2)=NO1 (centres unmarked) [compound 124]	1.85^[a]
CCN1CCCC1CNC(=O)C1(C)CC(c2ccc3ncc(Br)cc3c2)=NO1 (centres unmarked) [compound 126]	1.37^[a]
CC(C)NC(=O)C1(c2ccccc2)CC(c2ccc3ncc(Br)cc3c2)=NO1 (centres unmarked) [compound 136]	3.78^[a]
CC(C)NC(=O)C1(CCl)CC(c2ccc3ncc(Br)cc3c2)=NO1 (centres unmarked) [compound 139]	3.01^[a]
CCn1cc(CNC(=O)C2(C)CC(c3ccc4ncc(-c5cccs5)cc4c3)=NO2)c(C)n1 (centres unmarked) [compound 142]	2.63^[a]
CCn1cc(CNC(=O)C2(C)CC(c3ccc4ncc([S+](C)[O-])cc4c3)=NO2)c(C)n1 (centres unmarked) [compound 145]	1.34^[a]
CCn1cc(CNC(=O)C2(C)CC(c3ccc4ncc(S(C)(=O)=O)cc4c3)=NO2)c(C)n1 (centres unmarked) [compound 151]	1.6^[a]
CCn1cnnc1CNC(=O)C1(C)CC(c2ccc3ncc(Br)cc3c2)=NO1 (centres unmarked) [compound 154]	1.72^[a]

Now from value to compound:

log P	SMILES
3.89^[a]	CC1(C(=O)NCc2ncc(C(F)(F)F)cc2Cl)CC(c2ccc3ncc(Br)cc3c2)=NO1 (centres unmarked) [compound 156]
1.53^[a]	CC1(C(=O)NCc2ccnc(N3CCCC3)c2)CC(c2ccc3ncc(Br)cc3c2)=NO1 (centres unmarked) [compound 158]
1.54^[a]	C#Cc1cnc2ccc(C3=NOC(C)(C(=O)NCc4nncn4CC)C3)cc2c1 (centres unmarked) [compound 159]
2.75^[a]	CC1(C(=O)NCc2ccc3ccccc3n2)CC(c2ccc3ncc(Br)cc3c2)=NO1 (centres unmarked) [compound 165]
1.42^[a]	C#Cc1cnc2ccc(C3=NOC(C)(C(=O)NCc4ccnc(N5CCCC5)c4)C3)cc2c1 (centres unmarked) [compound 166]
3.58^[a]	C#Cc1cnc2ccc(C3=NOC(C)(C(=O)NCc4cccc(Cl)c4Cl)C3)cc2c1 (centres unmarked) [compound 172]
4.01^[a]	CC1(C(=O)NCc2cccc(Cl)c2Cl)CC(c2ccc3ncc(Br)cc3c2)=NO1 (centres unmarked) [compound 174]
3.8^[a]	C#Cc1cnc2ccc(C3=NOC(C)(C(=O)NCc4ccc(Oc5ccccc5)cc4)C3)cc2c1 (centres unmarked) [compound 175]
2.14^[a]	Cn1cncc1CNC(=O)C1(C)CC(c2ccc3ncc(Br)cc3c2)=NO1 (centres unmarked) [compound 203]
2.17^[a]	CC1(C(=O)NCc2nnco2)CC(c2ccc3ncc(Br)cc3c2)=NO1 (centres unmarked) [compound 204]
4.32^[a]	CC1(C(=O)NCc2ccccc2Oc2ccccc2)CC(c2ccc3ncc(Br)cc3c2)=NO1 (centres unmarked) [compound 207]
3.55^[a]	C#Cc1cnc2ccc(C3=NOC(C)(C(=O)NCCc4ccc(OC(F)(F)F)cc4)C3)cc2c1 (centres unmarked) [compound 209]
3.25^[a]	C#Cc1cnc2ccc(C3=NOC(C)(C(=O)NCCc4ccc(Cl)cc4)C3)cc2c1 (centres unmarked) [compound 210]
3.96^[a]	CC1(C(=O)NCCc2ccc(OC(F)(F)F)cc2)CC(c2ccc3ncc(Br)cc3c2)=NO1 (centres unmarked) [compound 211]
3.7^[a]	C#Cc1cnc2ccc(C3=NOC(C)(C(=O)NCCc4ccc(Cl)cc4Cl)C3)cc2c1 (centres unmarked) [compound 212]
1.34^[a]	C#Cc1cnc2ccc(C3=NOC(C)(C(=O)NC4CC(C)(C)N(C)C(C)(C)C4)C3)cc2c1 (centres unmarked) [compound 217]
3.48^[a]	C#Cc1cnc2ccc(C3=NOC(C)(C(=O)NC4(C#C)CCCCC4)C3)cc2c1 (centres unmarked) [compound 218]
3.85^[a]	CC1(C(=O)NCc2cccc3ccccc23)CC(c2ccc3ncc(Br)cc3c2)=NO1 (centres unmarked) [compound 224]
4.14^[a]	CC1(C(=O)NCC[Si](C)(C)C)CC(c2ccc3ncc(Br)cc3c2)=NO1 (centres unmarked) [compound 228]
3.65^[a]	C#Cc1cnc2ccc(C3=NOC(C)(C(=O)NCC#Cc4ccc(Cl)cc4)C3)cc2c1 (centres unmarked) [compound 229]
1.98^[a]	C#Cc1cnc2ccc(C3=NOC(C)(C(=O)NC4CCCCNC4=O)C3)cc2c1 (centres unmarked) [compound 230]
